Consider one cell line from the supplement of paper PMC10307832.

What all share (assay): relative viability (nuclei count vs DMSO), 5 days (fraction); higher = more cells survive
Compound in the experiment “Zosuquidar + OSI-027”: O[C@@H](COc1cccc2ncccc12)CN1CCN([C@@H]2c3ccccc3[C@@H]3[C@H](c4ccccc42)C3(F)F)CC1 [Zosuquidar] + COc1cccc2cc(-c3nc([C@H]4CC[C@H](C(=O)O)CC4)n4ncnc(N)c34)[nH]c12 [OSI-027] (partner 0.5 µM)
Summed up: (§1)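 Values are medians from duplicate plates. Each reflects relative viability, defined as the nuclei count of treated wells over that of vehicle wells. Lung cancer cell lines in 1536-well plates were pin-tool dosed one day after seeding with one drug alone or with a fixed anchor-drug dose plus five library-drug doses (not always all listed) in √10 steps, then fixed, stained and imaged at 4× after 5 days.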

Compound in the experiment “Zosuquidar + Phenformin”: O[C@@H](COc1cccc2ncccc12)CN1CCN([C@@H]2c3ccccc3[C@@H]3[C@H](c4ccccc42)C3(F)F)CC1 [Zosuquidar] + N=C(N)NC(=N)NCCc1ccccc1 [Phenformin] (partner 250 µM)
Summed up:
as §1

Compound in experiment [1]: COc1cc2nccc(Oc3ccc(NC(=O)C4(C(=O)Nc5ccc(F)cc5)CC4)cc3)c2cc1OC [Cabozantinib] + CS(=O)(=O)N1CCN(Cc2cc3nc(-c4cccc5[nH]ncc45)nc(N4CCOCC4)c3s2)CC1 [Pictilisib] (partner 1 µM)
In outline:
as §1

Compound in the experiment “Kobe2602 + Linsitinib”: C1=CC(=CC=C1NC(=S)NNC2=C(C=C(C=C2[N+](=O)[O-])C(F)(F)F)[N+](=O)[O-])F [Kobe2602] + C[C@]1(O)C[C@@H](c2nc(-c3ccc4ccc(-c5ccccc5)nc4c3)c3c(N)nccn32)C1 [Linsitinib] (partner 1 µM)
Summed up: as §1

Regarding UMC-11, the relative viability was 0.439 in the experiment with Zosuquidar + OSI-027 (first compound 0.01 µM); 0.511 with Zosuquidar + OSI-027 (first compound 0.03162 µM); 0.462 with Zosuquidar + OSI-027 (first compound 0.1 µM); 0.483 in the experiment with Zosuquidar + OSI-027 (first compound 0.3162 µM); 0.501 with Zosuquidar + OSI-027 (first compound 1 µM); 0.32 in the experiment with Zosuquidar + Phenformin (first compound 0.01 µM). In addition, the relative viability in the experiment with Zosuquidar + Phenformin (first compound 0.03162 µM) worked out at 0.331; with Zosuquidar + Phenformin (first compound 0.1 µM), 0.441; with Zosuquidar + Phenformin (first compound 0.3162 µM), 0.386; with Zosuquidar + Phenformin (first compound 1 µM), 0.324; in experiment [1] (first compound 0.02 µM) it was 0.804; in experiment [1] (first compound 0.06325 µM), 0.96. Moreover, the relative viability was 0.8 in experiment [1] (first compound 0.2 µM); 0.782 in experiment [1] (first compound 0.6325 µM); 0.76 in experiment [1] (first compound 2 µM); 1 with Kobe2602 + Linsitinib (first compound 0.2 µM); 1.06 with Kobe2602 + Linsitinib (first compound 0.6325 µM); 0.997 with Kobe2602 + Linsitinib (first compound 2 µM). Also, the relative viability with Kobe2602 + Linsitinib (first compound 6.325 µM) came to 0.996; in the experiment with Kobe2602 + Linsitinib (first compound 20 µM), 0.947.
